Data as given in ChEMBL document CHEMBL1149334, “Structure of a new cyclic nonapeptide, segetalin F, and vasorelaxant activity of segetalins from Vaccaria segetalis” (Bioorg Med Chem Lett, 2006).
Calls of active or inactive are those of the source. The rule behind the calls is not given here. Residues, ends and D or L forms follow the SMILES beside them.

How the values were obtained:
Assay type in all cases: functional, organism-based
Conditions in all cases: Aorta
Rattus norvegicus [1] = species on record: Rattus norvegicus; assay: Vasorelaxation effect against norepinephrine-induced contraction of rat thoracic aortic ring with endothelium at 100 uM
Rattus norvegicus [2] = species on record: Rattus norvegicus; assay: Vasorelaxation effect against norepinephrine-induced contraction of rat thoracic aortic ring without endothelium at 100 uM
Rattus norvegicus [3] = species on record: Rattus norvegicus; assay: Vasocontractile effect on norepinephrine-induced contraction of rat thoracic aortic ring without endothelium at 100 uM
Rattus norvegicus [4] = species on record: Rattus norvegicus; assay: Vasocontractile effect on norepinephrine-induced contraction of rat thoracic aortic ring with endothelium at 100 uM

| Structure (SMILES) | Activity (Rattus norvegicus [1]) | Activity (Rattus norvegicus [2]) | Activity (Rattus norvegicus [3]) | Activity (Rattus norvegicus [4]) |
| --- | --- | --- | --- | --- |
| CC(C)C[C@@H]1NC(=O)CNC(=O)[C@@H]2CCCN2C(=O)[C@H](Cc2ccccc2)NC(=O)[C@H](C)NC(=O)[C@H](Cc2ccccc2)NC(=O)[C@H](Cc2c[nH]cn2)NC1=O (cyclo(AFPGLHF)) | Active | Active | – | – |
| CC(C)C[C@@H]1NC(=O)CNC(=O)[C@@H]2CCCN2C(=O)[C@H](Cc2ccccc2)NC(=O)[C@H](C)NC(=O)[C@H](Cc2ccccc2)NC(=O)[C@H](CO)NC1=O (cyclo(AFPGLSF)) | Active | Active | – | – |
| CC(C)[C@@H]1NC(=O)CNC(=O)[C@H](C)NC(=O)[C@H](Cc2c[nH]c3ccccc23)NC(=O)[C@H](C)NC1=O (cyclo(AGVAW)) | Active | – | Active | Active |
| CC(C)[C@@H]1NC(=O)CNC(=O)[C@H](C)NC(=O)[C@H](Cc2ccc(O)cc2)NC(=O)[C@H](CCCCN)NC1=O (cyclo(AGVKY)) | Active | Active | – | – |
| CC(C)[C@@H]1NC(=O)[C@@H]2CCCN2C(=O)[C@H](C(C)C)NC(=O)CNC(=O)[C@H](C)NC(=O)[C@H](Cc2c[nH]c3ccccc23)NC1=O (cyclo(AGVPVW)) | Active | Active | – | – |
| C[C@@H]1NC(=O)[C@H](CO)NC(=O)[C@H](Cc2ccccc2)NC(=O)[C@@H]2CCCN2C(=O)[C@H](CCCCN)NC(=O)[C@H](CO)NC(=O)[C@H](CO)NC(=O)[C@H](Cc2ccc(O)cc2)NC(=O)[C@H](CO)NC1=O (cyclo(ASYSSKPFS)) | Active | Active | – | – |
| N=C(N)NCCC[C@@H]1NC(=O)[C@H](Cc2ccc(O)cc2)NC(=O)CNC(=O)[C@H](CO)NC(=O)[C@H](Cc2ccccc2)NC1=O (cyclo(FSGYR)) | Active | Active | – | – |
